For 23 compounds, IC50 results are on record in patent publication US12649751B2 (Arcus Biosciences, Inc., priority 2022, dated 2026).

The target in the assay is HPK1 (Homo sapiens, UniProt Q92918). Description: HPK1 Biochemical Assay (ADP-Glo luminescence; low ATP 10 μM or high ATP 200 μM). Particulars: 2 nM HPK1, 10 μM ATP; read-out: Biochemical Potency (low ATP).
HPK1, sequence (Q92918 whole entry, species assumed): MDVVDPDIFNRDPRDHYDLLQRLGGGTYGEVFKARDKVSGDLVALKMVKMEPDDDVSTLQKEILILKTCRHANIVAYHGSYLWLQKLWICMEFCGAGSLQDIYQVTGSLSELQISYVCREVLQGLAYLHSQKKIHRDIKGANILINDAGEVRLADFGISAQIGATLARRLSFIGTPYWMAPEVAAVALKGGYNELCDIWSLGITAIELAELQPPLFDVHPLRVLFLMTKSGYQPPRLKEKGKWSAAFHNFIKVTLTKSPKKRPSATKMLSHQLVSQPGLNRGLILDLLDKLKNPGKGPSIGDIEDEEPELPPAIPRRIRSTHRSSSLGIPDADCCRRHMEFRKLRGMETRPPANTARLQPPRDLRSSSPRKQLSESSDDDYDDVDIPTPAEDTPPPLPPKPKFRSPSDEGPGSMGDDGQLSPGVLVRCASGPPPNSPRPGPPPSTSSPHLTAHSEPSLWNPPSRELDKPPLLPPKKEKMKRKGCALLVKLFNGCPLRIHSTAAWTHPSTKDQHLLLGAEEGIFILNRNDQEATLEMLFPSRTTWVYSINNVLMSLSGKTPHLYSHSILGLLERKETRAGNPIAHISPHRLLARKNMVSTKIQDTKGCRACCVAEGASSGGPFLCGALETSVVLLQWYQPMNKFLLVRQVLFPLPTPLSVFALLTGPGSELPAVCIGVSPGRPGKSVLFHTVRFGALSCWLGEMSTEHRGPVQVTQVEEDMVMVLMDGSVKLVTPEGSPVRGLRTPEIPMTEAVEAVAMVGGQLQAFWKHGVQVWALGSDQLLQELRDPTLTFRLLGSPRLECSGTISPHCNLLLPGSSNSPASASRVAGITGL

Turning to `Cc1ccc(Nc2cc3nc(-n4nccc4C)sc3cn2)nc1N1CCNCC1` [Example 204, 5-Methyl-N-[2-(5-methyl-1H-pyrazol-1-yl)-[1,3]thiazolo[5,4-c]pyridin-6-yl]-6-(piperazin-1-yl)pyridin-2-amine], the IC50 is less than 0.1 µM.

With `C[C@@H]1CCC(=O)N1c1nc2cc(Nc3ccc(C4CCOCC4)c(CN4CCCC4)n3)ncc2s1` [Example 207, (5R)-5-Methyl-1-(6-{[5-(oxan-4-yl)-6-[(pyrrolidin-1-yl)methyl]pyridin-2-yl]amino}-[1,3]thiazolo[5,4-c]pyridin-2-yl)pyrrolidin-2-one], the IC50 was in the range of 0.1 to 1 µM.

Consider `C[C@H]1CCC(=O)N1c1nc2cc(Nc3ccc(C4CCOCC4)c(CN4CCCC4)n3)ncc2s1` [Example 208, (5S)-5-Methyl-1-(6-{[5-(oxan-4-yl)-6-[(pyrrolidin-1-yl)methyl]pyridin-2-yl]amino}-[1,3]thiazolo[5,4-c]pyridin-2-yl)pyrrolidin-2-one], for which the IC50 is less than 0.1 µM.

Turning to `c1cc(C2CCOCC2)c(CN2CCCC2)nc1Nc1cc2nc(N3C[C@@H]4C[C@H]3CO4)sc2cn1` [Example 211], the IC50 was 0.1 to 1 µM.

Turning to `Cc1cccnc1-c1nc2cc(Nc3ccc(C4CCOCC4)c(CN4CC[C@@H](F)C4)n3)ncc2s1` [Example 213, 6-{[(3R)-3-Fluoropyrrolidin-1-yl]methyl}-N-[2-(3-methylpyridin-2-yl)-[1,3]thiazolo[5,4-c]pyridin-6-yl]-5-(oxan-4-yl)pyridin-2-amine], the IC50 is less than 0.1 µM.

With `Cc1cccnc1-c1nc2cc(Nc3ccc(C4CCOCC4)c(CN[C@@H]4CCOC4)n3)ncc2s1` [Example 215, N-[2-(3-Methylpyridin-2-yl)-[1,3]thiazolo[5,4-c]pyridin-6-yl]-5-(oxan-4-yl)-6-({[(3R)-oxolan-3-yl]amino}methyl)pyridin-2-amine], the IC50 is less than 0.1 µM.

Regarding `FC1(F)CCN(Cc2nc(Nc3cc4nc(-c5ccncc5)sc4cn3)ccc2C2CCOCC2)C1` [Example 218, 6-[(3,3-Difluoropyrrolidin-1-yl)methyl]-5-(oxan-4-yl)-N-[2-(pyridin-4-yl)-[1,3]thiazolo[5,4-c]pyridin-6-yl]pyridin-2-amine], the IC50 was less than 0.1 µM.

Take `c1cc(-c2nc3cc(Nc4ccc(C5CCOCC5)c(CN5CCOCC5)n4)ncc3s2)ccn1` [Example 219, 6-[(Morpholin-4-yl)methyl]-5-(oxan-4-yl)-N-[2-(pyridin-4-yl)-[1,3]thiazolo[5,4-c]pyridin-6-yl]pyridin-2-amine]: the IC50 is less than 0.1 µM.

With `Cc1ccc(-c2nc3cc(Nc4ccc(C5CCOCC5)c(CN5CCCC5)n4)ncc3s2)cn1` [Example 222, N-[2-(6-Methylpyridin-3-yl)-[1,3]thiazolo[5,4-c]291yridine-6-yl]-5-(oxan-4-yl)-6-[(291yridine291ne-1-yl)methyl]291yridine-2-amine], the IC50 is less than 0.1 µM.

As to `Fc1ccc(-c2nc3cc(Nc4ccc(C5CCOCC5)c(CN5CCCC5)n4)ncc3s2)cc1` [Example 223], the IC50 was less than 0.1 µM.

As to `Cc1cccnc1-c1nc2cc(Nc3ccc(C(C)C)c(CN4CCCC4)n3)ncc2s1` [Example 226, N-[2-(3-Methylpyridin-2-yl)-[1,3]thiazolo[5,4-c]pyridin-6-yl]-5-(propan-2-yl)-6-[(pyrrolidin-1-yl)methyl]pyridin-2-amine], the IC50 is less than 0.1 µM.

On to `CC(C)c1ccc(Nc2cc3nc(-n4cccn4)sc3cn2)nc1CN1CCCC1` [Example 228, 5-(Propan-2-yl)-N-[2-(1H-pyrazol-1-yl)-[1,3]thiazolo[5,4-c]pyridin-6-yl]-6-[(pyrrolidin-1-yl)methyl]pyridin-2-amine], for which the IC50 is less than 0.1 µM.

Consider `C[C@@H]1CCCN1c1nc2cc(Nc3ccc(C4CCOCC4)c(CN4CCCC4)n3)ncc2s1` [Example 229, N-{2-[(2R)-2-Methylpyrrolidin-1-yl]-[1,3]thiazolo[5,4-c]pyridin-6-yl}-5-(oxan-4-yl)-6-[(pyrrolidin-1-yl)methyl]pyridin-2-amine], for which the IC50 lay within 0.1 to 1 µM.

Take `C[C@H]1CCCN1c1nc2cc(Nc3ccc(C4CCOCC4)c(CN4CCCC4)n3)ncc2s1` [Example 230, N-{2-[(2S)-2-Methylpyrrolidin-1-yl]-[1,3]thiazolo[5,4-c]pyridin-6-yl}-5-(oxan-4-yl)-6-[(pyrrolidin-1-yl)methyl]pyridin-2-amine]: the IC50 was less than 0.1 µM.

Turning to `c1cc(C2CCOCC2)c(CN2CCCC2)nc1Nc1cc2nc(N3CCCC3)sc2cn1` [Example 231, 5-(Oxan-4-yl)-N-[2-(pyrrolidin-1-yl)-[1,3]thiazolo[5,4-c]pyridin-6-yl]-6-[(pyrrolidin-1-yl)methyl]pyridin-2-amine], the IC50 is 0.1 to 1 µM.

For the compound `c1cc(C2CCOCC2)c(CN2CCCC2)nc1Nc1cc2nc(N3CCCCC3)sc2cn1` [Example 232, 5-(Oxan-4-yl)-N-[2-(piperidin-1-yl)-[1,3]thiazolo[5,4-c]pyridin-6-yl]-6-[(pyrrolidin-1-yl)methyl]pyridin-2-amine], the IC50 was less than 0.1 µM.

Take `O[C@H]1CCN(c2nc3cc(Nc4ccc(C5CCOCC5)c(CN5CCCC5)n4)ncc3s2)C1` [Example 233, (3S)-1-(6-{[5-(Oxan-4-yl)-6-[(pyrrolidin-1-yl)methyl]pyridin-2-yl]amino}-[1,3]thiazolo[5,4-c]pyridin-2-yl)pyrrolidin-3-ol]: the IC50 is 0.1 to 1 µM.

As to `O[C@@H]1CCN(c2nc3cc(Nc4ccc(C5CCOCC5)c(CN5CCCC5)n4)ncc3s2)C1` [Example 234, (3R)-1-(6-{[5-(Oxan-4-yl)-6-[(pyrrolidin-1-yl)methyl]pyridin-2-yl]amino}-[1,3]thiazolo[5,4-c]pyridin-2-yl)pyrrolidin-3-ol], the IC50 was 0.1 to 1 µM.

As to `C[C@H]1CCCCN1c1nc2cc(Nc3ccc(C4CCOCC4)c(CN4CCCC4)n3)ncc2s1` [Example 236, N-{2-[(2S)-2-Methylpiperidin-1-yl]-[1,3]thiazolo[5,4-c]pyridin-6-yl}-5-(oxan-4-yl)-6-[(pyrrolidin-1-yl)methyl]pyridin-2-amine], the IC50 was less than 0.1 µM.

With `c1cc(C2CCOCC2)c(CN2CCCC2)nc1Nc1cc2nc(N3C4COCC3C4)sc2cn1` [Example 237, N-(2-{3-Oxa-6-azabicyclo[3.1.1]heptan-6-yl}-[1,3]thiazolo[5,4-c]pyridin-6-yl)-5-(oxan-4-yl)-6-[(pyrrolidin-1-yl)methyl]pyridin-2-amine], the IC50 was less than 0.1 µM.

With `c1cc(C2CCOCC2)c(CN2CCCC2)nc1Nc1cc2nc(N3C[C@H]4C[C@@H]3CO4)sc2cn1` [Example 238, N-{2-[(1R,4R)-2-Oxa-5-azabicyclo[2.2.1]heptan-5-yl]-[1,3]thiazolo[5,4-c]pyridin-6-yl}-5-(oxan-4-yl)-6-[(pyrrolidin-1-yl)methyl]pyridin-2-amine], the IC50 lay within 0.1 to 1 µM.

`Cc1nccn1-c1nc2cc(Nc3ccc(C4CCOCC4)c(CN4CCCC4)n3)ncc2s1` [Example 239, N-[2-(2-Methyl-1H-imidazol-1-yl)-[1,3]thiazolo[5,4-c]pyridin-6-yl]-5-(oxan-4-yl)-6-[(pyrrolidin-1-yl)methyl]pyridin-2-amine]: the IC50 was less than 0.1 µM.

Take `Cc1cccnc1-c1nc2cc(Nc3nccc(N4C[C@@H]5C[C@H]4CN5)n3)ncc2s1` [Example 240, 4-[(1S,4S)-2,5-Diazabicyclo[2.2.1]heptan-2-yl]-N-[2-(3-methylpyridin-2-yl)-[1,3]thiazolo[5,4-c]pyridin-6-yl]pyrimidin-2-amine]: the IC50 lay within 0.1 to 1 µM.
